# From ChEMBL document CHEMBL4706539 (Eur J Med Chem, 2020)
# Calls of active or inactive are those of the source. The rule behind the calls is not given here.
# Legend:
# [1] = test system: SW-620; test: Antiproliferative activity against human SW-620 cells assessed as reduction in cell growth incubated for 72 hrs by MTT assay; format: functional, cell-based; settings: SW-620, 72 h
# [2] = test system: COLO357; test: Antiproliferative activity against human COLO357 cells assessed as reduction in cell growth incubated for 72 hrs by MTT assay; format: functional, cell-based; settings: COLO357, 72 h
# [3] = test system: HaCaT; test: Cytotoxicity against human HaCat cells assessed as reduction in cell growth incubated for 72 hrs by MTT assay; format: cell-based
# [4] = test system: PANC-1; test: Antiproliferative activity against human PANC-1 cells assessed as reduction in cell growth incubated for 72 hrs by MTT assay; format: functional, cell-based; settings: PANC-1, 72 h
# [5] = test system: Raji; test: Antiproliferative activity against human Raji cells assessed as reduction in cell growth incubated for 72 hrs by MTT assay; format: functional, cell-based
# [6] = test system: HEK293; test: Cytotoxicity against human HEK293 cells assessed as reduction in cell growth incubated for 72 hrs by MTT assay; format: cell-based; settings: HEK293, 72 h
# [7] = test system: HeLa; test: cells; settings: Homo sapiens, 72 h
# Description: Antiproliferative activity against human HeLa cells assessed as reduction in cell growth incubated for 72 hrs by MTT assay
# [8] = Acute toxicity in C57BL/6 mouse assessed as mouse death at 5 mg/kg, iv measured after 16 hrs; format: organism-based; settings: in vivo
# [9] = Acute toxicity in iv dosed A/Sn mouse assessed as mouse death at 5 mg/kg, iv measured after 16 hrs; format: organism-based; settings: in vivo
# [10] = Acute toxicity in iv dosed C57BL/6 mouse assessed as lethal dose; format: organism-based; settings: in vivo
# [11] = Acute toxicity in iv dosed CD-1 mouse assessed as mouse death at 5 mg/kg, iv measured after 16 hrs; format: organism-based; settings: in vivo
# [12] = Acute toxicity in iv dosed BALB/c mouse assessed as mouse death at 5 mg/kg, iv measured after 16 hrs; format: organism-based; settings: in vivo
# [13] = Acute toxicity in iv dosed CBA mouse assessed as mouse death at 5 mg/kg, iv measured after 16 hrs; format: organism-based; settings: in vivo
# [14] = target: T1, Tubulin (Homo sapiens) (UniProt P68371+Q9H4B7+P0DPH7+P68366+Q13509+Q71U36+P04350+Q3ZCM7+P07437+P68363+Q9BQE3+Q6PEY2+Q13885+Q9BVA1+Q9BUF5); test: Inhibition of tubulin assembly in human SW-620 cells assessed as induction of chromosome disturbance at 5 nM incubated for 24 hrs by Hoechst 33342 staining based confocal microscopic analysis; format: cell-based
# [15] = test system: SW-620; test: Induction of cell cycle arrest in human SW-620 cells assessed as accumulation at apoptotic phase at 5 nM incubated for 48 hrs by RNase/PI staining based flow cytometry analysis (reference value: 0.8 %); format: functional
# [16] = test system: COLO357; test: Induction of cell cycle arrest in human COLO357 cells assessed as accumulation at G2/M phase at 5 nM incubated for 48 hrs by RNase/PI staining based flow cytometry analysis (reference value: 13 %); format: functional
# [17] = target: T1, Tubulin (Homo sapiens); test: Inhibition of tubulin assembly in human SW-620 cells assessed as disruption of mitotic spindle at 5 nM incubated for 24 hrs by Hoechst 33342 staining based confocal microscopic analysis; format: cell-based
# [18] = test system: SW-620; test: Induction of cell cycle arrest in human SW-620 cells assessed as accumulation at G1 phase at 5 nM incubated for 48 hrs by RNase/PI staining based flow cytometry analysis (reference value: 65 %); format: functional
# [19] = species on record: Ovis aries; test: Inhibition of lamb brain tubulin polymerization assessed as reduction in microtubule assembly at 0.5 to 5 uM incubated for 40 mins at […] by spectrophotometric analysis relative to control; format: tissue-based; settings: dose 0.5-5 µM
# [20] = target: T1, Tubulin (Homo sapiens); test: Inhibition of tubulin assembly in human SW-620 cells assessed as induction of tubulin dissipation at 5 nM incubated for 24 hrs by Hoechst 33342 staining based confocal microscopic analysis; format: cell-based
# [21] = target: T1, Tubulin (Homo sapiens); test: Inhibition of tubulin assembly in human COLO357 cells assessed as induction of chromosome disturbance at 5 nM incubated for 24 hrs by Hoechst 33342 staining based confocal microscopic analysis; format: cell-based
# [22] = test system: COLO357; test: Induction of cell cycle arrest in human COLO357 cells assessed as accumulation at apoptotic phase at 5 nM incubated for 48 hrs by RNase/PI staining based flow cytometry analysis (reference value: 1.3 %); format: functional
# [23] = Acute toxicity in C57BL/6 mouse assessed as mouse death at 10 mg/kg, iv; format: organism-based; settings: in vivo
# [24] = target: T1, Tubulin (Homo sapiens); test: Inhibition of tubulin assembly in human COLO357 cells assessed as disruption of mitotic spindle at 5 nM incubated for 24 hrs by Hoechst 33342 staining based confocal microscopic analysis; format: cell-based
# [25] = test system: SW-620; test: Induction of cell cycle arrest in human SW-620 cells assessed as accumulation at G2/M phase at 5 nM incubated for 48 hrs by RNase/PI staining based flow cytometry analysis (reference value: 16 %); format: functional
# [26] = test system: COLO357; test: Induction of cell cycle arrest in human COLO357 cells assessed as accumulation at G1 phase at 5 nM incubated for 48 hrs by RNase/PI staining based flow cytometry analysis (reference value: 72 %); format: functional
# [27] = target: T1, Tubulin (Homo sapiens); test: Inhibition of tubulin assembly in human COLO357 cells assessed as induction of tubulin dissipation at 5 nM incubated for 24 hrs by Hoechst 33342 staining based confocal microscopic analysis; format: cell-based
# [28] = Acute toxicity in mouse assessed as lethal dose measured after 7 days; settings: in vivo, time 7 day
smiles,measurement,setting,value
COc1cc2c(c(OC)c1OC)-c1cc3c(C)coc3cc1[C@@H](NC(C)=O)CC2,IC50,[1],1.3 nM
same,IC50,[2],1.3 nM
same,IC50,[3],0.5 nM
same,IC50,[4],2.1 nM
same,IC50,[5],1.3 nM
same,IC50,[6],5 nM
same,IC50,[7],0.8 nM
COc1cc(-c2cc(=O)oc3cc4c(cc23)-c2c(cc(OC)c(OC)c2OC)CC[C@@H]4NC(C)=O)ccc1O,IC50,[1],160 nM
same,IC50,[2],870 nM
same,IC50,[5],837 nM
same,IC50,[6],4000 nM
COc1cc2c(c(OC)c1OC)-c1cc(I)c(OC(=O)C=C(C)C)cc1[C@@H](NC(C)=O)CC2,IC50,[1],32 nM
same,IC50,[2],160 nM
same,IC50,[5],160 nM
same,IC50,[6],805 nM
COc1cc2c(c(OC)c1OC)-c1cc3c(cc1[C@@H](NC(C)=O)CC2)OC/C3=C(\C)CCC=C(C)C,IC50,[1],> 20000 nM
same,IC50,[2],4330 nM
same,IC50,[3],4500 nM
same,IC50,[4],810 nM
same,IC50,[5],800 nM
same,IC50,[6],4280 nM
same,IC50,[7],4250 nM
C=C1c2cc3c(cc2OC1(F)F)[C@@H](NC(C)=O)CCc1cc(OC)c(OC)c(OC)c1-3,IC50,[1],0.04 nM
same,Activity,[8],Non-Toxic
same,Activity,[9],Non-Toxic
same,IC50,[2],0.02 nM
same,IC50,[3],0.03 nM
same,LD50,[10],> 10 mg/kg
same,IC50,[4],0.01 nM
same,Activity,[11],Non-Toxic
same,IC50,[5],0.05 nM
same,Activity,[12],Non-Toxic
same,IC50,[6],0.03 nM
same,IC50,[7],0.03 nM
same,Activity,[13],Non-Toxic
COC(=O)/C=C/c1cc2c(cc1O)[C@@H](NC(C)=O)CCc1cc(OC)c(OC)c(OC)c1-2,IC50,[1],> 4000 nM
same,IC50,[2],> 4000 nM
same,IC50,[5],> 4000 nM
same,IC50,[6],> 4000 nM
COc1cc2c(c(OC)c1OC)-c1cc3c(cc1[C@@H](NC(C)=O)CC2)OC/C3=C\c1ccccc1,IC50,[1],> 20000 nM
same,IC50,[2],> 20000 nM
same,IC50,[3],4370 nM
same,IC50,[4],> 20000 nM
same,IC50,[5],4600 nM
same,IC50,[6],> 20000 nM
same,IC50,[7],4020 nM
C/C=C/C(=O)Oc1cc2c(cc1I)-c1c(cc(OC)c(OC)c1OC)CC[C@@H]2NC(C)=O,IC50,[1],4 nM
same,IC50,[2],161 nM
same,IC50,[5],139 nM
same,IC50,[6],> 4000 nM
C=C1COc2cc3c(cc21)-c1c(cc(OC)c(OC)c1OC)CC[C@@H]3NC(C)=O,inhibition,[14],Active
same,Activity,[15],4%
same,IC50,[1],0.02 nM
same,Activity,[8],Non-Toxic
same,Activity,[9],Non-Toxic
same,Activity,[16],77%
same,inhibition,[17],Active
same,Activity,[18],12%
same,inhibition,[19],50%
same,IC50,[2],0.04 nM
same,IC50,[3],0.3 nM
same,LD50,[10],10 mg/kg
same,inhibition,[20],Active
same,inhibition,[21],Active
same,Activity,[22],2%
same,IC50,[4],0.08 nM
same,Activity,[11],Non-Toxic
same,IC50,[5],0.03 nM
same,Activity,[23],Toxic
same,inhibition,[24],Active
same,Activity,[12],Non-Toxic
same,Activity,[25],76%
same,Activity,[26],18%
same,inhibition,[27],Active
same,IC50,[6],0.08 nM
same,IC50,[7],1.7 nM
same,Activity,[13],Non-Toxic
COc1cc2c(c(OC)c1OC)-c1cc(I)c(OC(=O)/C=C/Cl)cc1[C@@H](NC(C)=O)CC2,IC50,[1],800 nM
same,IC50,[2],810 nM
same,IC50,[5],825 nM
same,IC50,[6],810 nM
COc1cc2c(c(OC)c1OC)-c1cc3c(C)cc(=O)oc3cc1[C@@H](NC(C)=O)CC2,IC50,[1],140 nM
same,IC50,[2],160 nM
same,IC50,[5],16 nM
same,IC50,[6],32 nM
C/C=C1/COc2cc3c(cc21)-c1c(cc(OC)c(OC)c1OC)CC[C@@H]3NC(C)=O,IC50,[1],6 nM
same,IC50,[2],5 nM
same,IC50,[3],14 nM
same,IC50,[4],32 nM
same,IC50,[5],3.8 nM
same,IC50,[6],3.8 nM
same,IC50,[7],32 nM
COc1cc2c(c(OC)c1OC)-c1ccc(OC)c(=O)cc1[C@@H](NC(C)=O)CC2 [COLCHICINE],Activity,[15],8.1%
same,IC50,[1],2.4 nM
same,Activity,[8],Toxic
same,Activity,[9],Toxic
same,Activity,[16],31%
same,Activity,[18],7.4%
same,IC50,[3],0.3 nM
same,LD50 at 168 h,[28],1.6 mg/kg
same,Activity,[22],2%
same,IC50,[4],0.1 nM
same,Activity,[11],Toxic
same,IC50,[5],16 nM
same,Activity,[12],Toxic
same,Activity,[25],74%
same,Activity,[26],62%
same,IC50,[7],1.3 nM
same,Activity,[13],Toxic
CC/C=C1/COc2cc3c(cc21)-c1c(cc(OC)c(OC)c1OC)CC[C@@H]3NC(C)=O,IC50,[1],810 nM
same,IC50,[2],800 nM
same,IC50,[3],135 nM
same,IC50,[4],80 nM
same,IC50,[5],90 nM
same,IC50,[6],166 nM
same,IC50,[7],150 nM
COc1cc2c(c(OC)c1OC)-c1cc3c(cc1[C@@H](NC(C)=O)CC2)OCC3=C(C)C,IC50,[1],780 nM
same,IC50,[2],860 nM
same,IC50,[3],390 nM
same,IC50,[4],850 nM
same,IC50,[5],420 nM
same,IC50,[6],400 nM
same,IC50,[7],410 nM
COC(=O)Cc1coc2cc3c(cc12)-c1c(cc(OC)c(OC)c1OC)CC[C@@H]3NC(C)=O,IC50,[1],4100 nM
same,IC50,[2],830 nM
same,IC50,[3],810 nM
same,IC50,[4],820 nM
same,IC50,[5],3900 nM
same,IC50,[6],4420 nM
same,IC50,[7],805 nM
C=CC(=O)Oc1cc2c(cc1I)-c1c(cc(OC)c(OC)c1OC)CC[C@@H]2NC(C)=O,IC50,[1],30 nM
same,IC50,[2],150 nM
same,IC50,[5],32 nM
same,IC50,[6],158 nM
COc1cc2c(c(OC)c1OC)-c1cc(I)c(OC(=O)/C=C/C(F)(F)F)cc1[C@@H](NC(C)=O)CC2,IC50,[1],6 nM
same,IC50,[2],30 nM
same,IC50,[5],180 nM
same,IC50,[6],170 nM
